The values that follow come from article PMC4445328, “Azasugar inhibitors as pharmacological chaperones for Krabbe disease” (Chemical Science, 2015).

Data set [1] has as its target T1, GALC (Mus musculus, UniProt P54818).
T1 construct: made in house
T1 sequence (P54818 43-684): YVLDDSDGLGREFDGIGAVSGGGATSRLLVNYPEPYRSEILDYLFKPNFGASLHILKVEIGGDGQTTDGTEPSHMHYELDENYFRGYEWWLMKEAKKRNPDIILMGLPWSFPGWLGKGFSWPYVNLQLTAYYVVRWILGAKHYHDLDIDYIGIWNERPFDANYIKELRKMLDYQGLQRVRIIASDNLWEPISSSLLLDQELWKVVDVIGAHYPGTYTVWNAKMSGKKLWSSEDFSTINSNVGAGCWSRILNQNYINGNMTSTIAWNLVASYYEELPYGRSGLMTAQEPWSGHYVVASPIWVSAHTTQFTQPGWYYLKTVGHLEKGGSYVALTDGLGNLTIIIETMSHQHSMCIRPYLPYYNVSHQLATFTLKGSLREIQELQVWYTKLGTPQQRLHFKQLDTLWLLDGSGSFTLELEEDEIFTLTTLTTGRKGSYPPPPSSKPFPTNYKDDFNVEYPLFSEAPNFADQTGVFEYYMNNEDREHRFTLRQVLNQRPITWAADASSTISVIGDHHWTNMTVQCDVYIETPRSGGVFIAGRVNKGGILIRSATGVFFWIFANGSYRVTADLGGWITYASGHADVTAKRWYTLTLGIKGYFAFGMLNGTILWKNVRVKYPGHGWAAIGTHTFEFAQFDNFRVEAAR
The data set is described as follows: Differential scanning fluorimetry (DSF) thermal shift of wild-type GALC. The data set is classed as binding. The following applies: for ΔTm at 5000 µM / ΔTm1 pH 7.4 (first transition of double sigmoid melt curve) / ΔTm2 pH 7.4 (second transition of double sigmoid melt curve): 5.0 mM compound; for ΔTm at 5000 µM: triplicate; for increase of Tm of wild-type enzyme / additional increase of Tm over DGJ, DIL and IGL: pH 4.6, 5 mM; for ΔTm1 pH 7.4 (first transition of double sigmoid melt curve) / ΔTm2 pH 7.4 (second transition of double sigmoid melt curve): PBS pH 7.4. A general note: Differential scanning fluorimetry follows unfolding on heating by fluorescence.

Data set [2] concerns the target T2, β-galactocerebrosidase (GALC) (Mus musculus, UniProt P54818).
T2 construct: made in house
T2 sequence (P54818 43-684): T1 sequence (P54818 43-684)
Description: GALC enzyme inhibition kinetics, Ki determination with chromogenic substrate 4NβDG. In kind it is biochemical. As to conditions: for Ki: pH 4.6, substrate 4-nitrophenyl-β-D-galactopyranoside, steady-state, competitive inhibition model; for times more potent inhibitors of GALC than pyrrolidine DIL and lactam IGL: pH 4.6, ratio of Ki values.

Data set [3] can be described thus: pKaH and protonation state of azasugars. The following applies: pH 7.4, from pKaH. The data set is classed as physicochemical.
The target of a further data set is T3, GALC E258Q (Mus musculus, UniProt P54818, E274Q).
T3 construct: made in house
T3 sequence (P54818 41-684 E274Q limits assumed): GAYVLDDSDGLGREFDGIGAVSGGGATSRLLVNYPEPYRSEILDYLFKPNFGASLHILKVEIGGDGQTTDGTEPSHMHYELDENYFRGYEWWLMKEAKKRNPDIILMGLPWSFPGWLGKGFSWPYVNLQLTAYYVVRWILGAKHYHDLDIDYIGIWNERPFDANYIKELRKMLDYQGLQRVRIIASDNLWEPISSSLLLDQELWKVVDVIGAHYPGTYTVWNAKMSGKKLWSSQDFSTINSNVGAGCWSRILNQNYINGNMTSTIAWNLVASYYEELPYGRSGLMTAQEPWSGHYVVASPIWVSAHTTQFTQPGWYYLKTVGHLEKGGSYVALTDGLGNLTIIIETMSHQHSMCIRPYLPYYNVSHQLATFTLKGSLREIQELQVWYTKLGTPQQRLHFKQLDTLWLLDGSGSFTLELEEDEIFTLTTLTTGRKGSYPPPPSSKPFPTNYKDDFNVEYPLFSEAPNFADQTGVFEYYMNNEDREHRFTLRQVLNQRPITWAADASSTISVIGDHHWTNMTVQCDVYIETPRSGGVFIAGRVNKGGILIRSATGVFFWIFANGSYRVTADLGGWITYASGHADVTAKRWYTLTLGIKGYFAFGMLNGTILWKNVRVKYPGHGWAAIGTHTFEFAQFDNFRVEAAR
Description: DSF thermal shift of GALC E258Q mutant. The data set is classed as binding. As to conditions: pH 7.4 PBS, 10 mM compound. The source says: All molecules form stabilizing hydrogen bonds with the side chain of E258 in the active site (Fig. 8A). […] Thus E258 O^ε2 could be forming a tight electrostatic interaction with the charged nitrogen in the ring of these molecules. Mutation of E258 to glutamine allows for the maintenance of a hydrogen bond but not an electrostatic interaction. We expressed and purified the E258Q mutant and repeated the DSF experiments at both pH 4.6 and pH 7.4. The importance of this interaction between E258 and the candidate chaperone molecules is highlighted by the complete loss of stabilization of GALC E258Q at pH 4.6 by all molecules except lactam IGL, which is incapable of forming a salt bridge (Fig. 8B). At pH 7.4, the global stability conferred by piperidine IGF to the E258Q mutant has lost the double sigmoid features seen for the wild-type GALC at pH 7.4 (Fig. 4A and 8C). […] To further understand the nature of the GALC–IGF interaction that is conferring the double melt curve we carried out DSF experiments at a range of pH values. […]
DSF experiments were performed in 48-well plates, 50 μL reactions comprised 5.0 μg GALC and 5× SyPRO Orange dye in either PBS pH 7.4, 20 mM Tris pH 7.4 or 20 mM sodium acetate pH 4.6. […] SyPRO fluorescence was monitored on the HEX channel. […] Stabilization is expressed as the ΔT m compared to a protein-only control. […]

On the set-up of data set [4]: method as in PMID 11891910. The following applies: cited from earlier work.
For data set [5], the target named is T1, GALC. The data set is described as follows: GALC crystal soaks, X-ray ligand binding in the active site. As to conditions: 20 mM ligand crystal soak; non-binders repeated for 1 hour and overnight.
[6] abbreviates: PBS pH 7.4, mean ± SEM, read-out: ΔTm pH 7.4.
The mark [7] stands for this setting: sodium acetate pH 4.6, mean ± SEM, read-out: ΔTm pH 4.6.
The mark [8] stands for this setting: 50 mM, Fig. S2, pH 4.6 and pH 7.4.

Where two headings read alike, the source gives them in different places.

Turning to `OCC1NCC(O)C(O)C1O` (stereo not shown) [DGJ, 1-deoxy-galacto-nojirimycin, reference compound], the ΔTm (as a rule, the shift of the melting midpoint relative to a reference) at 5000 µM on GALC [1] (setting [6]) stood at 5.2 °C. For the same compound, the “increase of Tm of wild-type enzyme” value at GALC [1] is recorded as 6–8 degrees.

As for `OC[C@H]1NC[C@H](O)[C@@H](O)[C@@H]1O` [DNJ, 1-deoxynojirimycin, reference compound], the “stabilization of GALC” value on GALC [1] (up to 10 mM, either pH (4.6 or 7.4), Fig. S2) is reported as “unable to stabilize GALC”.

In the case of `OC[C@H]1NC[C@@H](O)[C@H]1O` [DIL], affinity in data set [2] was put at a Ki of 130 ± 6 µM. Moreover, the thermal shift (ΔTm) at 5000 µM on GALC [1] (setting [6]) was found to be 4 °C; on GALC [1] (setting [7]), 7.2 °C. The “increase of Tm of wild-type enzyme” value at GALC [1] is recorded as 6–8 degrees.

As for `OCC1C2CCC(N2)C(O)C1O` (stereo not shown) [DGN, deoxy-galacto-noeurostegine], the ΔTm at 5000 µM at GALC [1] (setting [6]) is -3.6 ± 0.1 °C; on GALC [1] (setting [7]) it was 1 °C. Besides, the “effect on global stability of wild-type GALC” value at GALC [1] (pH 7.4) was “destabilized GALC”.

On to `OC[C@H]1CNC[C@@H](O)[C@H]1O` [IGF, iso-galacto-fagomine], for which the “molecules possessing a positive charge at pH 7.4” value in data set [3] is 96%. Moreover, at GALC E258Q, the “higher Tm2 with GALC E258Q” value is reported as “abolished”. Besides, in data set [2], the “times more potent inhibitors of GALC than pyrrolidine DIL and lactam IGL” value is “greater than 80 times”; the affinity corresponds to a Ki of 0.38 ± 0.026 µM. Moreover, in data set [4], the pKaH is on record as 8.8. Moreover, on GALC [1], the “ΔTm1 pH 7.4 (first transition of double sigmoid melt curve)” value amounted to 4 °C; the “ΔTm2 pH 7.4 (second transition of double sigmoid melt curve)” value stood at 21 °C; the “additional increase of Tm over DGJ, DIL and IGL” value was 8–9 degrees. Moreover, the “ΔTm1 pH 7.4 (first transition of double sigmoid melt curve)” value at GALC [1] (listed as IGF1) is “+4.0 ± 0.3 °C”. Moreover, the “ΔTm2 pH 7.4 (second transition of double sigmoid melt curve)” value at GALC [1] (listed as IGF2) is “+21.0 ± 0.2 °C”. Moreover, at GALC [1] (setting [7]), the ΔTm at 5000 µM was 17.7 °C.

Turning to `O=CC[C@@H](O)[C@@H](O)[C@H](O)CO` [2-deoxy-galactose, reference compound], the “stabilization of GALC” value at GALC [1] (setting [8]) is listed as “no stabilization”.

As to `CN1[C@@H](CC(=O)c2ccccc2)CCC[C@H]1C[C@H](O)c1ccccc1` [α-lobeline, reference compound], on GALC [1] (either pH (4.6 or 7.4), data not shown), the “change in Tm” value was “No change in T m”. On GALC [5], the “binding in GALC crystals (difference electron density in active site)” value is reported as “not observed to bind”.

In the case of `OC[C@H]1OC(O)[C@H](O)[C@@H](O)[C@H]1O` (mixture of isomers) [galactose, reference compound], the affinity in data set [2], expressed as Ki, was 7200 µM. For the same compound, the “stabilization of GALC” value at GALC [1] (setting [8]) is listed as “no stabilization”.

`O=C1NC[C@H](CO)[C@H](O)[C@@H]1O` [IGL, iso-galacto-fagomine lactam]: the inhibition constant (Ki) – broadly, the equilibrium dissociation constant of an inhibitor or competing ligand from its target – in data set [2] was found to be 52 ± 3 µM. Besides, the thermal shift (ΔTm) at 5000 µM on GALC [1] (setting [6]) amounted to 1.6 °C; on GALC [1] (setting [7]) it was 8.1 °C. Moreover, the “increase of Tm of wild-type enzyme” value at GALC [1] is on record as 6–8 degrees.

Consider `OC[C@H]1NNC[C@@H](O)[C@H]1O` [AGF, aza-galacto-fagomine], for which the “molecules possessing a positive charge at pH 7.4” value in data set [3] came to 2%. In addition, in data set [2], the “times more potent inhibitors of GALC than pyrrolidine DIL and lactam IGL” value is “greater than 80 times”; the Ki worked out at 0.63 ± 0.053 µM. Further, the pKaH in data set [4] was 5.7. The ΔTm at 5000 µM on GALC [1] (setting [6]) is 4.6 °C. Moreover, the thermal shift (ΔTm) at 5000 µM on GALC [1] (setting [7]) was 16.4 °C. Further, the “additional increase of Tm over DGJ, DIL and IGL” value at GALC [1] is 8–9 degrees.
